Reference: EPA's ToxValDB 9.5
Values joined by “and” are separate entries in the source; they are usually repeats but may differ in a detail not shown here. Identical values can stand only once. One block for each molecule: values may come before it.

Columns and labels:
Rattus norvegicus [1] = conditions: oral
Mus musculus [2] = conditions: uterotrophic, Active
Rattus norvegicus [3] = conditions: uterotrophic, Active
Mus musculus [4] = conditions: for LD50: acute; for LOAEL / NOAEL: gavage; for LOAEL / NOAEL / NOAEL (% diet) / LOAEL (% diet): CD1; for NOAEL (% diet) / LOAEL (% diet): duration: 105 days, drinking water
Rattus norvegicus [5] = conditions: for LD50: acute
Rattus norvegicus [6] = conditions: repeat dose other; oral
Oryctolagus sp. = conditions: acute; dermal
Rattus norvegicus [7] = conditions: subchronic, oral, diet, Fischer 344, Body Weight Changes: decrease + Food Consumption + Hematology: Hgb decrease, RBC decrease, MetHgb increase + Blood Chemistry: TP decrease, …
Mus musculus [8] = conditions: repeat dose other; oral
Rattus norvegicus [9] = conditions: oral, gavage
[10] = duration: 3 days, injection, subcutaneous
[11] = duration: 3 days, injection, intraperitoneal
[12] = duration: 7 days, injection, subcutaneous
[13] = reproduction developmental, oral, generation: F1
[14] = reproduction developmental, oral, F
[15] = developmental, duration: 19 days, inhalation, Sprague-Dawley
[16] = reproduction developmental, duration: 19 days, inhalation, F, Sprague-Dawley
[17] = reproduction developmental, duration: 55 days, oral, diet, generation: F0
[18] = reproduction developmental, duration: 112 days, oral, diet, generation: F0
[19] = reproduction developmental, duration: 112 days, oral, diet, generation: F1
[20] = subchronic, duration: 3 months, oral, diet, BOR/WISW (SPF Cpb)

SMILES: O=[N+]([O-])[O-].O=[N+]([O-])[O-].O=[N+]([O-])[O-].[Sm+3] [Samarium nitrate]
LOAEL (Rattus norvegicus [1]; chronic, duration: 5 months, drinking water, M/F, Sprague-Dawley): 0.438 mg/kg-day

SMILES: CNN [Methylhydrazine]
NOAEL (Rattus norvegicus [1]; developmental, duration: 13 days, gavage, F, Sprague-Dawley, developmental): 1 mg/kg-day

LEL (Mus musculus [2]; [10]): 0.5 µg/0.1 mL
LEL (fractional dose of pill) (Mus musculus [2]; duration: 3 days, oral): 0.001
LEL (Rattus norvegicus [3]; [11]): 0.001 mg/day
LEL (Rattus norvegicus [3]; duration: 3 days, oral): 0.01 mg/kg-day
LEL (Rattus norvegicus [3]; duration: 14 days, oral): 0.001 mg/day
SMILES: C#C[C@]1(O)CC[C@H]2[C@@H]3CCc4cc(OC)ccc4[C@H]3CC[C@@]21C [Mestranol]

LEL (Mus musculus [2]; [12]): 300 mg/kg-day
LEL (Mus musculus [2]; duration: 7 days, oral): 1000 mg/kg-day
LEL (Rattus norvegicus [3]; [11]): 500 mg/kg-day
SMILES: O=C(c1ccccc1)c1ccc(O)cc1O [2,4-Dihydroxybenzophenone]

LEL (Mus musculus [2]; [12]): 300 mg/kg-day
LEL (Mus musculus [2]; duration: 7 days, oral): 1000 mg/kg-day
LEL (Rattus norvegicus [3]; [10]): 100 mg/kg-day and 200 mg/kg-day and 230 mg/kg-day
LEL (Rattus norvegicus [3]; duration: 5 days, oral): 100 mg/kg-day and 250 mg/kg-day
LEL (Rattus norvegicus [3]; duration: 90 days, oral, diet): 185 mg/kg-day
SMILES: O=C(c1ccc(O)cc1O)c1ccc(O)cc1O [2,2',4,4'-Tetrahydroxybenzophenone]

SMILES: CCO [Ethanol]
LD50 (Mus musculus [4]; injection, Intraperitoneal, Swiss-Webster): 9200 mg/kg
LD50 (Mus musculus [4]; oral, NMRI): 8300 mg/kg
LOAEL (Mus musculus [4]; developmental, oral): > 6400 mg/kg-day
NOAEL (Mus musculus [4]; developmental, oral): ≥ 6400 mg/kg-day
NOAEL (% diet) (Mus musculus [4]; reproduction developmental, oral, generation: F0): 15
LOAEL (% diet) (Mus musculus [4]; [13]): 15
NOAEL (% diet) (Mus musculus [4]; [13]): 10
LOAEL (% diet) (Mus musculus [4]; reproduction developmental, oral, generation: F2): > 15
LOAEL (Mus musculus [4]; [14]): 3600 mg/kg-day
NOAEL (Mus musculus [4]; [14]): 2200 mg/kg-day
LD50 (Rattus norvegicus [5]; injection, Intraperitoneal, Wistar): 6710 mg/kg and 5100 mg/kg
LD50 (Rattus norvegicus [5]; oral, Wistar): 10600 mg/kg and 7060 mg/kg
LOAEL (Rattus norvegicus [5]; [15]): > 37700 mg/m3
NOAEL (Rattus norvegicus [5]; [15]): ≥ 37700 mg/m3
LOAEL (Rattus norvegicus [5]; [16]): 37700 mg/m3
NOAEL (Rattus norvegicus [5]; [16]): 30100 mg/m3
LOAEL (% diet) (Rattus norvegicus [5]; [17]): 5
NOAEL (% diet) (Rattus norvegicus [5]; [17]): 2
LOAEL (% diet) (Rattus norvegicus [5]; [18]): ≤ 5
NOAEL (% diet) (Rattus norvegicus [5]; [18]): < 5
LOAEL (% diet) (Rattus norvegicus [5]; [19]): > 5
NOAEL (% diet) (Rattus norvegicus [5]; [19]): ≤ 5
LOAEL (Rattus norvegicus [6]): 319 mg/kg-day
NOAEL (Rattus norvegicus [6]): 31.9 mg/kg-day

SMILES: CCCCCCCCCC [Decane]
NOAEL (Rattus norvegicus [1]; subchronic, duration: 8 weeks, gavage, M/F, Sprague-Dawley): 1000 mg/kg-day

SMILES: Clc1cc(Cl)c(Cl)c(-c2cc(Cl)c(-c3cc(Cl)c(Cl)c(Cl)c3)c(Cl)c2Cl)c1 [Aroclor 5460]
NOAEL (Rattus norvegicus [1]; chronic, duration: 95 days, diet, M, albino): 7.13 mg/kg-day

SMILES: CC(C)(C)CC(C)(C)c1ccc(O)cc1 [4-(1,1,3,3-Tetramethylbutyl)phenol]
LD50 (Oryctolagus sp.): > 2000 mg/kg
LD50 (Rattus norvegicus [5]; oral): 2200 mg/kg
LD50 (Rattus norvegicus [5]; oral, Sprague-Dawley): > 2000 mg/kg
NOAEL (Rattus norvegicus [5]; reproduction developmental, oral, diet, Sprague-Dawley): ≥ 2000 ppm
NOAEL (Rattus norvegicus [5]; reproduction developmental, oral, diet, Sprague-Dawley, generation: F0): 200 ppm
NOAEL (Rattus norvegicus [5]; reproduction developmental, oral, diet, Sprague-Dawley, generation: F1): 200 ppm
LOAEL (Rattus norvegicus [5]; [20]): 28.8 mg/kg-day
NOAEL (Rattus norvegicus [5]; [20]): 2.88 mg/kg-day
LEL (Mus musculus [2]; duration: 9 days, injection, subcutaneous): 50 mg/kg-day
LEL (Rattus norvegicus [3]; duration: 1 days, injection, subcutaneous): 200 mg/kg-day and 600 mg/kg-day
LEL (Rattus norvegicus [3]; duration: 2 days, injection, subcutaneous): 50 mg/kg-day
LEL (Rattus norvegicus [3]; duration: 14 days, injection, subcutaneous): 25 mg/kg-day

SMILES: Cc1ccc([N+](=O)[O-])cc1 [4-Nitrotoluene]
NOEL (Rattus norvegicus [7]; F): < 44 mg/kg-day
NOEL (Rattus norvegicus [7]; M/F): < 60 mg/kg-day
LOAEL (Rattus norvegicus [1]; subchronic, duration: 13 weeks, diet, M, Fischer 344, Immune): 42 mg/kg-day
LEL (Rattus norvegicus [3]; duration: 1 days, injection, intraperitoneal): 30 mg/kg-day

SMILES: [Na+].[O]=[Nb](=[O])[O-] [Sodium niobate (NaNbO3)]
LOAEL (Mus musculus [8]): 1.55 mg/kg-day
NOAEL (Mus musculus [8]): 0.155 mg/kg-day

SMILES: CC1(C)CCCCC1(C)C [Tetramethylcyclohexane]
NOAEL (Rattus norvegicus [1]; subchronic, duration: 90 days, diet, M/F, Sprague-Dawley, Whole Body Effects): 3000 mg/kg-day

SMILES: Clc1cc2oc3c(Cl)c(Cl)c(Cl)cc3c2cc1Cl [2,3,4,7,8-Pentachlorodibenzofuran]
LOAEL (Rattus norvegicus [6]): 0.00016 mg/kg-day
NOAEL (Rattus norvegicus [6]): 1.6e-05 mg/kg-day
LOAEL (Rattus norvegicus [9]; chronic, duration: 105 weeks, F, Harlan Sprague-Dawley, hepatic, endocrine): 6e-06 mg/kg-day
NOAEL (Rattus norvegicus [9]; developmental, duration: 1 days, M/F, Wistar, developmental): 0.0005 mg/kg-day
